According to ChEMBL document CHEMBL3259748, “Synthesis, characterization, and PK/PD studies of a series of spirocyclic pyranochromene BACE1 inhibitors” (Bioorg Med Chem Lett, 2014):

Experiments:
MDR1 (human) = assay: Apparent permeability of the compound across pig LLC-PK1 cells expressing human MDR1; type: ADME, cell-based, Sus scrofa
[1] = Clearance in human liver microsomes at 1 uM after 20 mins in presence of NADPH; type: ADME

| Papp (MDR1 (human)) [×10⁻⁶ cm/s] | CLhep predicted at 1 µM [1] [mL/min/kg] | SMILES |
| --- | --- | --- |
| 10 | 6 | NC1=N[C@@]2(CO1)c1cc(-c3cccnc3F)ccc1O[C@@H]1COCC[C@H]12 |
| 11 | 8 | N#Cc1cccc(-c2ccc3c(c2)[C@@]2(COC(N)=N2)[C@@H]2CCOC[C@H]2O3)c1 |
| 14 | 13 | NC1=N[C@@]2(CO1)c1cc(-c3cncc(Cl)c3)ccc1O[C@@H]1COCC[C@H]12 |
| 4.7 | 15 | NC1=N[C@@]2(CO1)c1cc(-c3cncc(Cl)c3)ccc1O[C@H]1COCC[C@@H]12 |
| 11 | 10 | NC1=N[C@@]2(CO1)c1cc(-c3cc(F)cc(Cl)c3)ccc1O[C@@H]1COCC[C@H]12 |
| 10 | 15 | C[C@]12COCC[C@@H]1[C@]1(COC(N)=N1)c1cc(-c3cncc(Cl)c3)ccc1O2 (racemic) |
| 15 | 9 | NC1=N[C@@]2(CO1)c1cc(-c3cncc(F)c3)ccc1O[C@@H]1COCC[C@H]12 |
